Values of other authors, collected in patent publication US20050013939A1, “Boron-based wood preservatives and treatment of wood with boron-based preservatives” (priority 2001, published 2005).

Legend:
fungal decay = conditions: boric acid equivalents typically required in wood
Insect = conditions: boric acid equivalents typically required in wood

OB(O)O [boric acid]
% wt/wt BAE required, Fungicidal protection (fungal decay): 0.75 % wt/wt
% wt/wt BAE required, Insect protection (Insect): 0.25 % wt/wt
